Source: ChEMBL document CHEMBL4396905, “Design, synthesis and in vitro evaluation of 6-amide-2-aryl benzoxazole/benzimidazole derivatives against tumor cells by inhibiting VEGFR-2 kinase” (Eur J Med Chem, 2019)

target: T1, Vascular endothelial growth factor receptor 2 (Homo sapiens, UniProt P35968); assay: Inhibition of VEGFR2 (unknown origin) using Poly (Glu, Tyr) 4:1 as substrate preincubated with substrate followed by enzyme challenge for 1 hr by ELISA; settings: not given
T1 sequence (P35968 whole entry): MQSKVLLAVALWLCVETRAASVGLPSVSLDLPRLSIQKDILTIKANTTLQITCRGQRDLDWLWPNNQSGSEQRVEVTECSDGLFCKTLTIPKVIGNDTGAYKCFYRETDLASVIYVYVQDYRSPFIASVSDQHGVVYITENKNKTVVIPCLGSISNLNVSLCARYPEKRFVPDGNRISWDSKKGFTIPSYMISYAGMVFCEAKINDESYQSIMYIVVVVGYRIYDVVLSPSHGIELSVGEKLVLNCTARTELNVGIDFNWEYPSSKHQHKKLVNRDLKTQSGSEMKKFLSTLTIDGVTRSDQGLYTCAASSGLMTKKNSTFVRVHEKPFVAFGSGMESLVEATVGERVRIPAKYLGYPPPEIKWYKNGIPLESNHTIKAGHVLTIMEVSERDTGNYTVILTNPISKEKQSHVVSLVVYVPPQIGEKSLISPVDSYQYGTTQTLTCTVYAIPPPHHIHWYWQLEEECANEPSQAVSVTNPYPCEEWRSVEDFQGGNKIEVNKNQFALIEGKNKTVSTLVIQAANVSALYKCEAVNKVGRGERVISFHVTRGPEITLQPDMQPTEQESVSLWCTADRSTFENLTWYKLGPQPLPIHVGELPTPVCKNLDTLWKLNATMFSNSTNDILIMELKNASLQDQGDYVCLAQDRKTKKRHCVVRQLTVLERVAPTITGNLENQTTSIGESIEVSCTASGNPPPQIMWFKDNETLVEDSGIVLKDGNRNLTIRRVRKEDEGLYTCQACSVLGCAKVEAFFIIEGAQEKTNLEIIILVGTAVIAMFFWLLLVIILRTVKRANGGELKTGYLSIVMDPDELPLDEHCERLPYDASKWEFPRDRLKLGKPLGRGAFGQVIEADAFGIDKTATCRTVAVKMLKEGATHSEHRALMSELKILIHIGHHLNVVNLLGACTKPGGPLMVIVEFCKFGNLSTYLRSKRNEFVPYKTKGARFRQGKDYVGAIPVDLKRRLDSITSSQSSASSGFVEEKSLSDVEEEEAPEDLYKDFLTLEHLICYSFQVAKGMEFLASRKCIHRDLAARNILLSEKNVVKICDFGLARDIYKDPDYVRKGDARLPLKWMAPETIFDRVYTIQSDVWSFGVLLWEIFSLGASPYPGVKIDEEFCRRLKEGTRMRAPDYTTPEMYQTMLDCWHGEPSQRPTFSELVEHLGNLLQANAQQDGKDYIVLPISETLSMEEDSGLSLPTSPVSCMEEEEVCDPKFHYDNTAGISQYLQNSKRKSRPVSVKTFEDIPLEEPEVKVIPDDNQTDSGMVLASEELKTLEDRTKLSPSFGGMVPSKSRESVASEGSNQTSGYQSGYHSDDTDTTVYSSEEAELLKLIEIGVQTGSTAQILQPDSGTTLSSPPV

SMILES | IC50 [µM]
Cc1ccc(CC(=O)Nc2ccc3oc(-c4ccccc4Cl)nc3c2)cc1 | 0.489
COc1ccc(CC(=O)Nc2ccc3oc(-c4ccc(Cl)cc4)nc3c2)cc1OC | 0.386
O=C(Nc1ccc2[nH]c(-c3ccc(Cl)cc3)nc2c1)c1ccc(Cl)c(Br)c1 | 0.542
COc1cc(CC(=O)Nc2ccc3[nH]c(-c4ccc(Cl)cc4)nc3c2)cc(OC)c1OC | 0.419
COc1ccc(CC(=O)Nc2ccc3oc(-c4ccccc4)nc3c2)cc1OC | 0.579
O=C(Nc1ccc2[nH]c(-c3ccc(Cl)cc3)nc2c1)c1ccc(Cl)c(F)c1 | 0.988

Compounds with a lower IC50, results first:

IC50 [µM] | SMILES
0.259 | COc1cc(CC(=O)Nc2ccc3oc(-c4ccc(Cl)cc4)nc3c2)cc(OC)c1OC
0.338 | O=C(Nc1ccc2oc(-c3ccc(Cl)cc3)nc2c1)c1ccc(Cl)c(Br)c1

target: Epidermal growth factor receptor (Homo sapiens) (UniProt P00533); assay: Inhibition of EGFR (unknown origin) using Poly (Glu, Tyr) 4:1 as substrate at 1 uM preincubated with substrate followed by enzyme challenge for 1 hr by ELISA relative to control; settings: not given
Sequence (P00533 whole entry): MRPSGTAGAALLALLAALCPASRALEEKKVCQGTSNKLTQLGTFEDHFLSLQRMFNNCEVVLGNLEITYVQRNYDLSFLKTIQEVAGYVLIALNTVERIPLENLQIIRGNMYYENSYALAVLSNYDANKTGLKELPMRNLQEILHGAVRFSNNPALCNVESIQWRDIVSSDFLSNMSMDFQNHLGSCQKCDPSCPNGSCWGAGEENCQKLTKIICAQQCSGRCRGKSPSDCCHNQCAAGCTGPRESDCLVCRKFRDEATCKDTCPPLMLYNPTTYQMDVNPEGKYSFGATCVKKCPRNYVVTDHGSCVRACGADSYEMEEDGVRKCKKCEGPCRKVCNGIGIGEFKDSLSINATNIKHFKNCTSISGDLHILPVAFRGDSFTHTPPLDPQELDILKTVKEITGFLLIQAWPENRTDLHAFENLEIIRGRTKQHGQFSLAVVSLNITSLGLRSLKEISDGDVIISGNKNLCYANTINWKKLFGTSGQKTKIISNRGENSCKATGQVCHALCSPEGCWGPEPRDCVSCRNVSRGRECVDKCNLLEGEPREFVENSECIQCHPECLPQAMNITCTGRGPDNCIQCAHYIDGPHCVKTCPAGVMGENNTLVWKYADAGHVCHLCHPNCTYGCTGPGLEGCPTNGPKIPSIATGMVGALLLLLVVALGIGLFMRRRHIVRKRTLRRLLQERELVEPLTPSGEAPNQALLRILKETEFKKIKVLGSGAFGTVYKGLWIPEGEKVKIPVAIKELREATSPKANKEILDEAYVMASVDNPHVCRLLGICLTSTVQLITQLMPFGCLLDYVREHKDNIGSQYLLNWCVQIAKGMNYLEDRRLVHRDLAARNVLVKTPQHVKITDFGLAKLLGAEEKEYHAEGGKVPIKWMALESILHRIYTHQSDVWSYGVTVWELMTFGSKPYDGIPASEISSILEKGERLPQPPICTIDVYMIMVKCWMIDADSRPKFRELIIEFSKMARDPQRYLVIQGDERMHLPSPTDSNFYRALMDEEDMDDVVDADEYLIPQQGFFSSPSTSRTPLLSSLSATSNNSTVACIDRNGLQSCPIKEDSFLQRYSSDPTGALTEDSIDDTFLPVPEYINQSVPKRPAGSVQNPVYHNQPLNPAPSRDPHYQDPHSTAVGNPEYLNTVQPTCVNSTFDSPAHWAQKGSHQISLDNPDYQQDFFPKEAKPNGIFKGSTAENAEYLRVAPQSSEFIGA

SMILES | inhibition [%]
Cc1ccc(CC(=O)Nc2ccc3oc(-c4ccccc4Cl)nc3c2)cc1 | 47.5
COc1ccc(CC(=O)Nc2ccc3oc(-c4ccc(Cl)cc4)nc3c2)cc1OC | 52.2
O=C(Nc1ccc2[nH]c(-c3ccc(Cl)cc3)nc2c1)c1ccc(Cl)c(Br)c1 | 40.8
COc1cc(CC(=O)Nc2ccc3[nH]c(-c4ccc(Cl)cc4)nc3c2)cc(OC)c1OC | 43.1
COc1ccc(CC(=O)Nc2ccc3oc(-c4ccccc4)nc3c2)cc1OC | 37.2
O=C(Nc1ccc2[nH]c(-c3ccc(Cl)cc3)nc2c1)c1ccc(Cl)c(F)c1 | 45.2

More lines, now with the values ahead:

inhibition [%] | SMILES
58.9 | COc1cc(CC(=O)Nc2ccc3oc(-c4ccc(Cl)cc4)nc3c2)cc(OC)c1OC
44.1 | O=C(Nc1ccc2oc(-c3ccc(Cl)cc3)nc2c1)c1ccc(Cl)c(Br)c1

test system: HUVEC; assay: Antiproliferative activity against human HUVEC cells expressing VEGFR2 assessed as reduction in cell growth incubated for 48 hrs by MTT assay; assay type: functional, cell-based; settings: not given

SMILES | IC50 [µM]
Cc1ccc(CC(=O)Nc2ccc3oc(-c4ccccc4Cl)nc3c2)cc1 | 16.3
COc1ccc(CC(=O)Nc2ccc3oc(-c4ccc(Cl)cc4)nc3c2)cc1OC | 11.4
COc1cc(CC(=O)Nc2ccc3oc(-c4ccc(Cl)cc4)nc3c2)cc(OC)c1OC | 13.3
O=C(Nc1ccc2[nH]c(-c3ccc(Cl)cc3)nc2c1)c1ccc(Cl)c(Br)c1 | 7.61
COc1cc(CC(=O)Nc2ccc3[nH]c(-c4ccc(Cl)cc4)nc3c2)cc(OC)c1OC | 7.32
O=C(Nc1ccc2oc(-c3ccc(Cl)cc3)nc2c1)c1ccc(Cl)c(Br)c1 | 13.4
COc1ccc(CC(=O)Nc2ccc3oc(-c4ccccc4)nc3c2)cc1OC | 18.4
O=C(Nc1ccc2[nH]c(-c3ccc(Cl)cc3)nc2c1)c1ccc(Cl)c(F)c1 | 13.4

test system: HepG2; assay: Antiproliferative activity against human HepG2 cells expressing VEGFR2 assessed as reduction in cell growth incubated for 48 hrs by MTT assay; assay type: functional, cell-based; settings: HepG2, 48 h

SMILES | IC50 [µM]
Cc1ccc(CC(=O)Nc2ccc3oc(-c4ccccc4Cl)nc3c2)cc1 | 36.3
COc1ccc(CC(=O)Nc2ccc3oc(-c4ccc(Cl)cc4)nc3c2)cc1OC | 24.3
O=C(Nc1ccc2[nH]c(-c3ccc(Cl)cc3)nc2c1)c1ccc(Cl)c(Br)c1 | 12
COc1cc(CC(=O)Nc2ccc3[nH]c(-c4ccc(Cl)cc4)nc3c2)cc(OC)c1OC | 3.43
COc1ccc(CC(=O)Nc2ccc3oc(-c4ccccc4)nc3c2)cc1OC | 16.4
O=C(Nc1ccc2[nH]c(-c3ccc(Cl)cc3)nc2c1)c1ccc(Cl)c(F)c1 | 26.3

The next lines start with the values.

IC50 [µM] | SMILES
28.2 | COc1cc(CC(=O)Nc2ccc3oc(-c4ccc(Cl)cc4)nc3c2)cc(OC)c1OC
37 | O=C(Nc1ccc2oc(-c3ccc(Cl)cc3)nc2c1)c1ccc(Cl)c(Br)c1

test system: A549; assay: Antiproliferative activity against human A549 cells expressing EGFR assessed as reduction in cell growth incubated for 48 hrs by MTT assay; assay type: functional, cell-based; settings: A549, 48 h

SMILES | IC50 [µM]
Cc1ccc(CC(=O)Nc2ccc3oc(-c4ccccc4Cl)nc3c2)cc1 | 64.4
COc1ccc(CC(=O)Nc2ccc3oc(-c4ccc(Cl)cc4)nc3c2)cc1OC | > 100
O=C(Nc1ccc2[nH]c(-c3ccc(Cl)cc3)nc2c1)c1ccc(Cl)c(Br)c1 | 30.4
COc1cc(CC(=O)Nc2ccc3[nH]c(-c4ccc(Cl)cc4)nc3c2)cc(OC)c1OC | 36.8
COc1ccc(CC(=O)Nc2ccc3oc(-c4ccccc4)nc3c2)cc1OC | 89.2
O=C(Nc1ccc2[nH]c(-c3ccc(Cl)cc3)nc2c1)c1ccc(Cl)c(F)c1 | 36.6

Next, values leading:

IC50 [µM] | SMILES
> 100 | COc1cc(CC(=O)Nc2ccc3oc(-c4ccc(Cl)cc4)nc3c2)cc(OC)c1OC
> 100 | O=C(Nc1ccc2oc(-c3ccc(Cl)cc3)nc2c1)c1ccc(Cl)c(Br)c1

test system: MDA-MB-231; assay: Antiproliferative activity against human MDA-MB-231 cells expressing EGFR assessed as reduction in cell growth incubated for 48 hrs by MTT assay; assay type: functional, cell-based; settings: MDA-MB-231, 48 h

SMILES | IC50 [µM]
Cc1ccc(CC(=O)Nc2ccc3oc(-c4ccccc4Cl)nc3c2)cc1 | 47.7
COc1ccc(CC(=O)Nc2ccc3oc(-c4ccc(Cl)cc4)nc3c2)cc1OC | > 100
O=C(Nc1ccc2[nH]c(-c3ccc(Cl)cc3)nc2c1)c1ccc(Cl)c(Br)c1 | 74.4
COc1cc(CC(=O)Nc2ccc3[nH]c(-c4ccc(Cl)cc4)nc3c2)cc(OC)c1OC | 75.9
COc1ccc(CC(=O)Nc2ccc3oc(-c4ccccc4)nc3c2)cc1OC | 94.3
O=C(Nc1ccc2[nH]c(-c3ccc(Cl)cc3)nc2c1)c1ccc(Cl)c(F)c1 | 69.4

Second part, the compound after the results:

IC50 [µM] | SMILES
> 100 | COc1cc(CC(=O)Nc2ccc3oc(-c4ccc(Cl)cc4)nc3c2)cc(OC)c1OC
> 100 | O=C(Nc1ccc2oc(-c3ccc(Cl)cc3)nc2c1)c1ccc(Cl)c(Br)c1

target: T1, Vascular endothelial growth factor receptor 2; settings: at 1 µM
Description: Inhibition of VEGFR2 (unknown origin) using Poly (Glu, Tyr) 4:1 as substrate at 1 uM preincubated with substrate followed by enzyme challenge for 1 hr by ELISA relative to control

SMILES | inhibition [%]
Cc1ccc(CC(=O)Nc2ccc3oc(-c4ccccc4Cl)nc3c2)cc1 | 93.5
COc1ccc(CC(=O)Nc2ccc3oc(-c4ccc(Cl)cc4)nc3c2)cc1OC | 92.6
O=C(Nc1ccc2[nH]c(-c3ccc(Cl)cc3)nc2c1)c1ccc(Cl)c(Br)c1 | 93.8
COc1cc(CC(=O)Nc2ccc3[nH]c(-c4ccc(Cl)cc4)nc3c2)cc(OC)c1OC | 90.2
COc1ccc(CC(=O)Nc2ccc3oc(-c4ccccc4)nc3c2)cc1OC | 83.5
O=C(Nc1ccc2[nH]c(-c3ccc(Cl)cc3)nc2c1)c1ccc(Cl)c(F)c1 | 87.5

Second part, the compound after the results:

inhibition [%] | SMILES
91.5 | COc1cc(CC(=O)Nc2ccc3oc(-c4ccc(Cl)cc4)nc3c2)cc(OC)c1OC
90.2 | O=C(Nc1ccc2oc(-c3ccc(Cl)cc3)nc2c1)c1ccc(Cl)c(Br)c1
